Measurements reported in ChEMBL document CHEMBL1127650, “Investigation of the active site of aminopeptidase A using a series of new thiol-containing inhibitors” (J Med Chem, 1994).

How the values were obtained:
Aminopeptidase B = Aminopeptidase B (Homo sapiens, UniProt Q9H4A4); assay: Inhibition of arginylaminopeptidase (aminopeptidase B); set-up: species or system Oryctolagus cuniculus
[1] = test system: Glutamyl aminopeptidase (Oryctolagus cuniculus); assay: Inhibition of aminopeptidase A (APA) at 0.4 mM

Aminopeptidase B, sequence (Q9H4A4 whole entry): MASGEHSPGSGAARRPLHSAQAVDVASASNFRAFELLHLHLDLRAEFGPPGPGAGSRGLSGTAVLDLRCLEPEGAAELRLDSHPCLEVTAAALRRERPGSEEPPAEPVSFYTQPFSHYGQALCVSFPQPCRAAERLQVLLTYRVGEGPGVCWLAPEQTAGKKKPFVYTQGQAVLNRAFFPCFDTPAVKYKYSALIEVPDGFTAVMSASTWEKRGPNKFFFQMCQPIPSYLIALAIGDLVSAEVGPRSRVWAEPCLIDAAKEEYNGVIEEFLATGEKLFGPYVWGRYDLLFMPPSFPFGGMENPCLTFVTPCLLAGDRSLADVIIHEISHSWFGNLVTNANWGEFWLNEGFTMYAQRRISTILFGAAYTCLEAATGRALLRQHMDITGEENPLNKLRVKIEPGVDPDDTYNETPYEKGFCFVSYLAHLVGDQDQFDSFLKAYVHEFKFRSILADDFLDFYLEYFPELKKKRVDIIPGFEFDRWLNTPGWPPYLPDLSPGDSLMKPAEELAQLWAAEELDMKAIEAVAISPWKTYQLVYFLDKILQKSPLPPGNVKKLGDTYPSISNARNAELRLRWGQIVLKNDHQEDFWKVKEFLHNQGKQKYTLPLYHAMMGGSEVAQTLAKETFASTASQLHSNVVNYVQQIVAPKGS

Row | Ki (Aminopeptidase B) [pM] | inhibition [1] [%] | SMILES
1 | 900 |  | NCCCCC(S)C(=O)O (centres undefined)
2 |  | 0 | NC(CC(=O)O)Cc1ccccc1 (centres undefined)
3 |  | 0 | NC(CC(=O)NO)Cc1ccccc1 (centres undefined)

Row | SMILES | Ki (Aminopeptidase B) [pM] | inhibition [1] [%]
4 | NC(Cc1ccccc1)CP(=O)(O)O (centres undefined) |  | 13
